The source of these data is ChEMBL document CHEMBL1221203, “Modern synthetic efforts toward biologically active terpenes” (Nat Chem Biol, 2007).

pEC50: −log10 of the molar value.

This experiment concerns Human immunodeficiency virus. The experiment in a line: Antiviral activity against HIV replication in human H9 cells. The class given is functional, organism-based. Particulars: Human immunodeficiency virus 1, H9.

Compound `C[C@]12CCC[C@]3(C(=O)OC1)[C@@H]2CC[C@@]12C[C@@H](CC[C@H]13)[C@](C)(O)C2` [NEOTRIPTERIFORDIN] showed a pEC50 of 7.60.

By pEC50 is commonly meant the negative decadic logarithm of the EC50, by convention in mol/L. High values mean a low EC50, low ones a high EC50.
